Consider 13 compounds from PubChem BioAssay (NCI).

Among the test systems are HL-60(TB) leukemia; SK-MEL-28 melanoma; OVCAR-8 ovarian; TK-10 renal; SK-MEL-5 melanoma; HCT-116 colon; OVCAR-3 ovarian; NCI/ADR-RES ovarian; MDA-MB-435; PC-3 prostate.
Assay in all cases: NCI-60 cell line screen, 48 h

Where “and” joins values, the source holds several entries; their conditions need not be identical. Identical values can stand only once.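 Cultured in 96-well plates, cells were exposed to test compound for 48 hours across five concentrations. Here, GI50 denotes the concentration required for 50% inhibition of growth. TGI marks complete inhibition of growth.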 Where only a bound is given, the exact number is not on record here.

Turning to `Nc1ccc(C(=O)CC2(O)C(=O)Nc3ccccc32)cc1` (centres undefined), the TGI with HL-60(TB) leukemia, in the test on SK-MEL-28 melanoma, in the test with OVCAR-8 ovarian, with TK-10 renal, with SK-MEL-5 melanoma and in the test with HCT-116 colon was more than 100 µM each time. Besides, the TGI in the test with OVCAR-3 ovarian was more than 100 µM.

`CN1C(c2ccccc2)CC(=NO)CC1c1ccccc1` (centres undefined): the GI50 with HL-60(TB) leukemia is 22 µM; in the test on NCI/ADR-RES ovarian, 48.8 µM; with OVCAR-8 ovarian, 54.1 µM; in the test on TK-10 renal it was 66.5 µM; with SK-MEL-5 melanoma it was 71.8 µM; in the test with HCT-116 colon, 33.9 µM. Also, the GI50 is 24.9 µM in the test with OVCAR-3 ovarian and 61 µM in the test on MDA-MB-435. Further, the TGI was 40.7 µM and 68 µM in the test on HL-60(TB) leukemia; more than 100 µM in the test with SK-MEL-28 melanoma; more than 100 µM with OVCAR-8 ovarian; more than 100 µM in the test on TK-10 renal; more than 100 µM in the test on SK-MEL-5 melanoma; 33.6 µM in the test on HCT-116 colon. Also, the TGI in the test on OVCAR-3 ovarian was > 100 µM and 77.3 µM.

Regarding `CCCCCCCCCCCCCCCCCC1=NC(C)(C)CN1C(C)(C)CO`, the GI50 with PC-3 prostate is 1.85 µM; in the test with HL-60(TB) leukemia, 1.15 µM; in the test with SK-MEL-28 melanoma, 1.81 µM; in the test with TK-10 renal it was 1.83 µM; with SK-MEL-5 melanoma, 1.68 µM; in the test on HCT-116 colon it was 0.559 µM. Further, the GI50 was 1.5 µM with OVCAR-3 ovarian and 1.58 µM with MDA-MB-435. Also, the TGI with PC-3 prostate worked out at 4.81 µM; in the test with HL-60(TB) leukemia it was 4.07 µM; in the test with SK-MEL-28 melanoma, 3.28 µM; with TK-10 renal, 3.34 µM; with SK-MEL-5 melanoma, 3.07 µM; in the test on HCT-116 colon it was 2.01 µM. The TGI amounted to 2.96 µM in the test on OVCAR-3 ovarian and 3.42 µM with MDA-MB-435.

With `Cc1cc2[nH]c(=O)c3c4ncccc4cn3c2cc1C`, the GI50 is 5.83 µM with PC-3 prostate; 2.93 µM in the test with NCI/ADR-RES ovarian; 4.7 µM in the test with SK-MEL-28 melanoma; 2.89 µM in the test with OVCAR-8 ovarian; 4.36 µM in the test with TK-10 renal; 1.92 µM in the test on HCT-116 colon. Besides, the GI50 in the test with OVCAR-3 ovarian was 2.02 µM. Moreover, the TGI was more than 100 µM with PC-3 prostate; more than 100 µM in the test with NCI/ADR-RES ovarian; more than 100 µM in the test on SK-MEL-28 melanoma; more than 100 µM in the test on OVCAR-8 ovarian; 61.8 µM in the test on TK-10 renal; 4.53 µM with HCT-116 colon. In the test on OVCAR-3 ovarian, this compound gave a TGI of 4.33 µM.

On to `CN1CCN(c2ccncc2S(=O)(=O)N2CCN(C)CC2)CC1`, for which the TGI with PC-3 prostate, in the test on NCI/ADR-RES ovarian, in the test with SK-MEL-28 melanoma, with OVCAR-8 ovarian, in the test on TK-10 renal and in the test with SK-MEL-5 melanoma was more than 100 µM in each case. In addition, the TGI with HCT-116 colon, in the test on OVCAR-3 ovarian and in the test with MDA-MB-435 was more than 100 µM in each case.

For `CC(=O)O[C@H]1CC[C@@]2(C)C(=CC[C@H]3C(CC#N)[C@@](C)(C#N)CCC32)C1` (some centres undefined), the TGI in the test on HL-60(TB) leukemia, with SK-MEL-28 melanoma, in the test with OVCAR-8 ovarian, in the test with TK-10 renal, with SK-MEL-5 melanoma and with HCT-116 colon was more than 100 µM each time. The same compound displayed a TGI with OVCAR-3 ovarian of more than 100 µM.

In the case of `N#Cc1ccc2[nH]cc(Cc3c[nH]c4ccc(C#N)cc34)c2c1`, the GI50 is 9.86 µM with PC-3 prostate; 12.5 µM in the test on NCI/ADR-RES ovarian; 17.4 µM with SK-MEL-28 melanoma; 10.2 µM with OVCAR-8 ovarian; 13.5 µM in the test with TK-10 renal; 8.7 µM in the test on SK-MEL-5 melanoma. Further, the GI50 was 10.9 µM with HCT-116 colon, 16.7 µM in the test on OVCAR-3 ovarian and 11.4 µM in the test on MDA-MB-435. Moreover, the TGI in the test with PC-3 prostate is 27.8 µM; in the test on NCI/ADR-RES ovarian, 36.3 µM; in the test with SK-MEL-28 melanoma, more than 50 µM; in the test with OVCAR-8 ovarian, 28.2 µM; in the test on TK-10 renal, 33.5 µM; in the test on SK-MEL-5 melanoma it was 17.7 µM. Moreover, the TGI in the test with HCT-116 colon was found to be 28.4 µM; with OVCAR-3 ovarian, 49 µM; with MDA-MB-435 it was 24 µM.

For the compound `CO[C@H]1/C=C/O[C@@]2(C)Oc3c(C)c(O)c4c(O)c(c(/C=N/N5C(C)CN(Cc6ccc(C#N)cc6)CC5C)c(O)c4c3C2=O)NC(=O)/C(C)=C\C=C\[C@H](C)[C@H](O)[C@@H](C)[C@@H](O)[C@@H](C)[C@H](OC(C)=O)[C@@H]1C` (some centres undefined), the GI50 with HL-60(TB) leukemia is 7.19 µM; in the test on NCI/ADR-RES ovarian, 11.7 µM; with SK-MEL-28 melanoma it was 8.45 µM; in the test on OVCAR-8 ovarian, 10.4 µM; with TK-10 renal, 7.92 µM; in the test on SK-MEL-5 melanoma, 5.91 µM. For the same compound, the GI50 with HCT-116 colon is 5.41 µM; with OVCAR-3 ovarian, 6.99 µM; in the test on MDA-MB-435, 8.58 µM. Further, the TGI in the test on HL-60(TB) leukemia worked out at 18.6 µM; in the test on NCI/ADR-RES ovarian it was 46 µM; in the test with SK-MEL-28 melanoma, 16.4 µM; in the test with OVCAR-8 ovarian it was 38.9 µM; in the test with TK-10 renal, 18.8 µM; in the test with SK-MEL-5 melanoma, 12.3 µM. Further, the figures for the TGI in the test on HCT-116 colon, with OVCAR-3 ovarian and in the test on MDA-MB-435 were 12.7 µM, 13.5 µM and 23.5 µM, respectively.

On to `COc1cccc(/C=C2\N=C(Cl)OC2=O)c1O`, for which the TGI in the test on HL-60(TB) leukemia, with SK-MEL-28 melanoma, in the test with OVCAR-8 ovarian, with TK-10 renal, in the test with SK-MEL-5 melanoma and in the test with HCT-116 colon was more than 100 µM throughout. Besides, the TGI with OVCAR-3 ovarian was more than 100 µM.

Turning to `CCCC(=O)Oc1ccc(/C=N/NC(N)=S)nc1`, the TGI in the test on HL-60(TB) leukemia, with SK-MEL-28 melanoma, with OVCAR-8 ovarian, in the test on TK-10 renal, with SK-MEL-5 melanoma and with HCT-116 colon was more than 100 µM in each case. For the same compound, the TGI in the test with OVCAR-3 ovarian was more than 100 µM.

On to `Clc1ccc(-c2nnc(-c3nn(-c4ccccc4)c4nc5ccccc5nc34)o2)cc1`, for which the TGI with HL-60(TB) leukemia is 80.5 µM; in the test with SK-MEL-28 melanoma, more than 100 µM; in the test on OVCAR-8 ovarian, more than 100 µM; in the test on TK-10 renal, more than 100 µM; in the test with SK-MEL-5 melanoma, 32.3 µM; in the test on HCT-116 colon, more than 100 µM. In addition, the TGI in the test with OVCAR-3 ovarian was more than 100 µM.

As for `CCOC(=O)NC(=O)c1cn(C2CCCCC2)c(=O)n(C)c1=O`, the TGI in the test with HL-60(TB) leukemia, in the test with SK-MEL-28 melanoma, in the test on OVCAR-8 ovarian, with TK-10 renal, in the test with SK-MEL-5 melanoma and in the test on HCT-116 colon was more than 100 µM throughout. In the test on OVCAR-3 ovarian, this compound displayed a TGI of more than 100 µM.

On to `CSc1nc2c(nc(N)n2C2OC(CO)C(O)C(O)C2O)c(=O)[nH]1` (centres undefined), for which the TGI in the test on HL-60(TB) leukemia, with SK-MEL-28 melanoma, with OVCAR-8 ovarian, in the test with TK-10 renal, in the test on SK-MEL-5 melanoma and with HCT-116 colon was more than 100 µM throughout. In the test with OVCAR-3 ovarian, this compound gave a TGI of more than 100 µM.
